Results from patent US5573772A, “Methods for protecting tissues and organs from ischemic damage” (priority 1994, dated 1996).

Assays:
heart = conditions: cited from earlier work
[1] = tested on: A3 adenosine receptor (R226); conditions: cited from earlier work
[2] = tested on: intact, blood perfused rabbit heart; assay: Infarct size in the intact anesthetized rabbit, 30 min ischemia and reperfusion, Example 2
Procedure: In this study, the effect of the adenosine receptor agonist, I-APNEA, on infarct size in the anesthetized rabbit was compared to the protection observed with ischemic preconditioning (PC).
New Zealand White rabbits (1.5-2.5 kg) were anaesthetized with pentobarbital sodium (40 mg/kg) administered via a catheter in a marginal ear vein. The animals were intubated with a pediatric cuffed endotracheal tube and ventilated with room air using a positive pressure respirator (Harvard Apparatus, Natick, Mass.). The heart was exposed in situ via an incision between the left 4th and 5th ribs, and a branch of the left coronary artery was isolated, using a 3-0 silk suture on RB-taper needle, for later ligation to induce 30 minutes of ischemia followed by 180 minutes of reperfusion. A catheter inserted into a femoral vein was used for administration of fluids and drugs. Infarct size was measured using the method described in the section entitled "Measurement of Infarct Size and Risk Area" in Example 1.
All animals received 30 minutes of regional ischemia, induced by tightening the suture placed around the coronary artery. Following the 30 minutes of ischemia, the suture was loosened, and reperfusion was allowed for the ensuing 180 minutes. Control animals received only the 30 minutes of ischemia and 180 minutes of reperfusion (n=9). Ischemic preconditioning (PC) was induced by 5 minutes of occlusion of the coronary artery followed by 10 minutes of reperfusion before the 30 minutes of occlusion (n=7). In a separate group of rabbits, I-APNEA was delivered intravenously as a slow bolus injection (0.25 mg/kg), beginning 15 minutes prior to the 30 minutes occlusion (n=8). In two additional groups of rabbits, the effects of the A1-selective adenosine receptor blocker, DPCPX, were tested against the effects of PC (n=6) and I-APNEA (n=8). […] At the end of 120 minutes of reperfusion, all animals were killed by an overdose of pentobarbital, and risk area and infarct size were measured.

intact rabbit = assay: Bradycardia and mean arterial pressure in the anesthetized rabbit, Example 2; conditions: DPCPX 0.5 mg/kg IV
isolated rabbit hearts = assay: Hemodynamic effects in non-ischemic, unpaced isolated rabbit hearts, Example 4; conditions: APNEA 500 nM
Procedure: In an additional group of 3 hearts that were not made ischemic, 500 nM APNEA was infused for 1 minute. This group of hearts was not paced to control heart rate, and the effects of APNEA on spontaneous heart rate and coronary flow were measured to determine the hemodynamic effects of APNEA.

Nc1ncnc2c1ncn2[C@@H]1O[C@H](CO)[C@@H](O)[C@H]1O [ADO, Adenosine]
Sensation of anginal pain (heart; in vivo): mediator of the sensation of anginal pain | Hypotension (heart; intravenous injection at doses required for ischemic preconditioning): too much hypotension

CCCn1c(=O)c2[nH]c(C3CCCC3)nc2n(CCC)c1=O [DPCPX, 8-cyclopentyl-1,3-dipropylxanthine]
Binding to R226 [1]: not to bind | Infarct size ([2]; DPCPX 0.5 mg/kg IV + I-APNEA 0.25 mg/kg): 28±8.0% | Infarct size ([2]; DPCPX 0.5 mg/kg IV + PC): 7±1.8% | Effect on bradycardia associated with activation of the A1 adenosine receptor (intact rabbit): abolish | Effect on fall in mean arterial pressure with I-APNEA or R-PIA (intact rabbit; I-APNEA 0.25 mg/kg or R-PIA 1 mg/kg, iv): attenuated

Nc1ccc(CCNc2ncnc3c2ncn3[C@@H]2O[C@H](CO)[C@@H](O)[C@H]2O)cc1 [APNEA, N^6-(2-(4-aminophenyl)ethyl) adenosine]
Coronary flow after APNEA (isolated rabbit hearts; 1 minute, before 50±9, 3 hearts): 58 ± 6 mL/min | Heart rate after APNEA (isolated rabbit hearts; 1 minute, before 178±7, 3 hearts): 169±3 beats/min | Effect on heart rate or coronary flow (isolated rabbit hearts; non-ischemic hearts): no effect on heart rate or coronary flow
